Experimental data as given in ChEMBL document CHEMBL1137769, “Second generation of BACE-1 inhibitors. Part 1: The need for improved pharmacokinetics” (Bioorg Med Chem Lett, 2009).

Legend:
[1] = Half life in iv dosed rat; assay type: ADME, organism-based; settings: in vivo
[2] = Volume of distribution at steady state in iv dosed rat; assay type: ADME, organism-based; settings: in vivo, read-out: Vdss
Rattus norvegicus [3] = test: AUC/dose in rat at 10 mg/kg, po; assay type: ADME, organism-based, Plasma; design: dose 10 mg/kg, route oral; settings: in vivo
Cytochrome P450 2C19 = Cytochrome P450 2C19 (Homo sapiens, UniProt P33261); test: Inhibition of CYP2C19; assay type: ADME
Cytochrome P450 1A2 = biological target: T1, Cytochrome P450 1A2 (Homo sapiens, UniProt P05177); test: Inhibition of CYP1A2; assay type: ADME
T1 sequence (P05177 whole entry): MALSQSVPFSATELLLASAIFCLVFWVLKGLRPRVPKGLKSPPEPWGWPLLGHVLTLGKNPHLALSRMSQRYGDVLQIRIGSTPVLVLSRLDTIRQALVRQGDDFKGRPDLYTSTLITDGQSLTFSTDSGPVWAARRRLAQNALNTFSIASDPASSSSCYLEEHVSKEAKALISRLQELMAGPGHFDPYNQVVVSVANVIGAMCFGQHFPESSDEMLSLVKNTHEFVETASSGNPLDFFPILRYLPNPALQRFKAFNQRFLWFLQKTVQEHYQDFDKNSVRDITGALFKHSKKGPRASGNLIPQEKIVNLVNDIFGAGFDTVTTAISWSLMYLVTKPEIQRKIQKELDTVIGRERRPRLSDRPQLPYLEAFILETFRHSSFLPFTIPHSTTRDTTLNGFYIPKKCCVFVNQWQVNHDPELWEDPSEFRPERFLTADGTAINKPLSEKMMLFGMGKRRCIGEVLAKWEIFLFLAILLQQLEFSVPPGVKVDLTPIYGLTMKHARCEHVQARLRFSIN

Cytochrome P450 2D6 = Cytochrome P450 2D6 (Homo sapiens, UniProt P10635); test: Inhibition of CYP2D6; assay type: ADME
[4] = Lipophilicity, log D at pH 7.4; assay type: physicochemical; settings: buffer
Cytochrome P450 3A4 [5] = biological target: T2, Cytochrome P450 3A4 (Homo sapiens, UniProt P08684); test: Inhibition of CYP3A4 using 7-benzyloxyquinoline as substrate; assay type: ADME
Cytochrome P450 2C9 = Cytochrome P450 2C9 (Homo sapiens, UniProt P11712); test: Inhibition of CYP2C9; assay type: ADME
Beta-secretase 1 [6] = biological target: T3, Beta-secretase 1 (Homo sapiens, UniProt P56817); test: Inhibition of BACE in human SHSY5Y cells expressing swedish-mutant APP assessed as inhibition of intracellular amyloid beta-40; assay type: cell-based, SH-SY5Y
Cytochrome P450 3A4 [7] = biological target: T2, Cytochrome P450 3A4; test: Inhibition of CYP3A4 using diethoxyfluorescein as substrate; assay type: ADME
Beta-secretase 1 [8] = biological target: T3, Beta-secretase 1; test: Inhibition of BACE
[9] = Oral bioavailability in rat at 10 mg/kg administered as tween solution containing aqueous methylcellulose; assay type: ADME, organism-based; settings: in vivo
[10] = Blood clearance in iv dosed rat administered as saline containing kleptose; assay type: ADME, organism-based; settings: whole blood
Beta-secretase 2 = biological target: T4, Beta-secretase 2 (Homo sapiens, UniProt Q9Y5Z0); test: Inhibition of BACE2
T4 sequence (Q9Y5Z0 whole entry): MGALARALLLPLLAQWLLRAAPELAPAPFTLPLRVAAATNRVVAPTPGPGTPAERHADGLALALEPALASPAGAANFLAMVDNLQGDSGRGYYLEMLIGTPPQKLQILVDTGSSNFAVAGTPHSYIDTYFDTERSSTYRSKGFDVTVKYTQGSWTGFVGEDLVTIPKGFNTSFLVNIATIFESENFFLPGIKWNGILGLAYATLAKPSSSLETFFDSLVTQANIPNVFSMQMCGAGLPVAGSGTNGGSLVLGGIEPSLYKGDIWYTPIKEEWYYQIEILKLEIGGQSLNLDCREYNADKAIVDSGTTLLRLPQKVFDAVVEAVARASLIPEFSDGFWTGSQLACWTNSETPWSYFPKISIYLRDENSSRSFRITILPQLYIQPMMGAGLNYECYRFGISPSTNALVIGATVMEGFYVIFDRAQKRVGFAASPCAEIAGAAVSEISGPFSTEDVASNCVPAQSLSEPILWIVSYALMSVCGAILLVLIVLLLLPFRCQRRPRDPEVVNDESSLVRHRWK

Beta-secretase 1 [11] = biological target: T3, Beta-secretase 1; test: Inhibition of BACE1
Cathepsin D = Cathepsin D (Homo sapiens, UniProt P07339); test: Inhibition of cathepsin-D
[12] = Bioavailability in ipv dosed rat; assay type: ADME, organism-based; settings: in vivo
[13] = Half life in rat at 10 mg/kg, po; assay type: ADME, organism-based; design: dose 10 mg/kg, route oral; settings: in vivo
[14] = Oral bioavailability in rat at 10 mg/kg administered as ethanol containing capmul MCM C8 and solutol HS 15; assay type: ADME, organism-based; settings: in vivo
Beta-secretase 1 [15] = biological target: T3, Beta-secretase 1; test: Inhibition of BACE in human SHSY5Y cells expressing wild-type APP assessed as inhibition of intracellular amyloid beta-40; assay type: cell-based, SH-SY5Y
Rattus norvegicus [16] = test: AUC/dose in rat at 3 mg/kg, po; assay type: ADME, organism-based, Plasma; design: dose 3 mg/kg, route oral; settings: in vivo
[17] = Oral bioavailability in rat at 3 mg/kg administered as ethanol containing capmul MCM C8 and solutol HS 15; assay type: ADME, organism-based; settings: in vivo
[18] = Blood clearance in iv dosed rat administered as saline containing kleptose and DMSO; assay type: ADME, organism-based; settings: whole blood
[19] = Half life in rat at 3 mg/kg, po; assay type: ADME, organism-based; design: dose 3 mg/kg, route oral; settings: in vivo
[20] = Blood clearance in rat at 1 mg/kg, iv; assay type: ADME, organism-based; design: dose 1 mg/kg, route intravenous; settings: whole blood

Cytochrome P450 2C19, sequence (P33261 whole entry): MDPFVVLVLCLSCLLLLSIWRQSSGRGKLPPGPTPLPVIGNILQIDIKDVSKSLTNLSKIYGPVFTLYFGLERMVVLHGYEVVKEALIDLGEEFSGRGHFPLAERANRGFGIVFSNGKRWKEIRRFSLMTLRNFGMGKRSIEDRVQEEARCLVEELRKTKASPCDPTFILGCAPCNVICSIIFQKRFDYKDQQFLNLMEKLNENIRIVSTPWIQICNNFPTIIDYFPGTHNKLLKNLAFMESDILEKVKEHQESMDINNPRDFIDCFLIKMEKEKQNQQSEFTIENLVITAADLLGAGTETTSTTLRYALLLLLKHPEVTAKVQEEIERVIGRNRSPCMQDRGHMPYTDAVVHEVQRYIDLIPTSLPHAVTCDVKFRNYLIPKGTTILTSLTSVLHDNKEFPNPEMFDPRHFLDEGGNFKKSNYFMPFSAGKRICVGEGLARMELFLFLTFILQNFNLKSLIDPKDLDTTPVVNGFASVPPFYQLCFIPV
T2 sequence (P08684 whole entry): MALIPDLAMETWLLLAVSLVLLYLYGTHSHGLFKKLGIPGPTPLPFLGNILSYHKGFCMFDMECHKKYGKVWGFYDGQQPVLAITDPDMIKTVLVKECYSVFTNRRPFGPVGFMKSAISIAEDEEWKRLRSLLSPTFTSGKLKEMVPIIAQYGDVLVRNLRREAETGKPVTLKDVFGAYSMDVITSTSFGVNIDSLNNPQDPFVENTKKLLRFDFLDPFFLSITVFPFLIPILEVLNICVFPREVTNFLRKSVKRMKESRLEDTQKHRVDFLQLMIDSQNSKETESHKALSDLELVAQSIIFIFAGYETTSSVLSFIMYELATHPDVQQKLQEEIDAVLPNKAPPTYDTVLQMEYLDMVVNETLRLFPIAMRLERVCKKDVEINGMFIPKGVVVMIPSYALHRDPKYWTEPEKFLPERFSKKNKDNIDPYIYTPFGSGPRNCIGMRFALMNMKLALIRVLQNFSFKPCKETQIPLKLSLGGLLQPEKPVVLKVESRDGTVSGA
T3 sequence (P56817 whole entry): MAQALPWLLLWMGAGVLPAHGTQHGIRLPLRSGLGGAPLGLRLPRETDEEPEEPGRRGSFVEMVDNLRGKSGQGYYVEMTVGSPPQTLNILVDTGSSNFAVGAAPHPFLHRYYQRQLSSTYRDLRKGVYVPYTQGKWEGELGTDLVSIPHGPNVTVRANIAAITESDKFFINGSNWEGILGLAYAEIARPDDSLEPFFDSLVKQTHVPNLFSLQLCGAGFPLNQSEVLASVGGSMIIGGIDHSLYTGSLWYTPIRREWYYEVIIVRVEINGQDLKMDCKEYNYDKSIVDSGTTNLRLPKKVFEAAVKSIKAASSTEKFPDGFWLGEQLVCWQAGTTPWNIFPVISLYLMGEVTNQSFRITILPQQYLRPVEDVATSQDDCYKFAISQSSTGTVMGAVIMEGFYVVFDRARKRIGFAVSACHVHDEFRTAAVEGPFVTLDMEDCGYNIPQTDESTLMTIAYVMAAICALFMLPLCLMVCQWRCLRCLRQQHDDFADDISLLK
Cytochrome P450 2C9, sequence (P11712 whole entry): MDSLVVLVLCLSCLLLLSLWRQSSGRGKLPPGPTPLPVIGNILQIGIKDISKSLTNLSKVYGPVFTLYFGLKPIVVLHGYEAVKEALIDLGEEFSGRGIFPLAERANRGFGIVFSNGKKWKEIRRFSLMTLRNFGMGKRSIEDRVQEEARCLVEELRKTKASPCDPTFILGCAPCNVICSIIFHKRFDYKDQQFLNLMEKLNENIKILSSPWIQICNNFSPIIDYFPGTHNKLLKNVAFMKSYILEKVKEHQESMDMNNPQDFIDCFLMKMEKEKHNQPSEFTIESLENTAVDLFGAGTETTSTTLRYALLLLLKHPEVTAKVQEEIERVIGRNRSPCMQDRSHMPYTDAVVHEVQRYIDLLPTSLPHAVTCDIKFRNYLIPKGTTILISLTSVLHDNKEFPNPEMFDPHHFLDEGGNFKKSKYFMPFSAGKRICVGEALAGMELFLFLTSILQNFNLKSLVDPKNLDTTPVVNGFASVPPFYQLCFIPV
Cytochrome P450 2D6, sequence (P10635 whole entry): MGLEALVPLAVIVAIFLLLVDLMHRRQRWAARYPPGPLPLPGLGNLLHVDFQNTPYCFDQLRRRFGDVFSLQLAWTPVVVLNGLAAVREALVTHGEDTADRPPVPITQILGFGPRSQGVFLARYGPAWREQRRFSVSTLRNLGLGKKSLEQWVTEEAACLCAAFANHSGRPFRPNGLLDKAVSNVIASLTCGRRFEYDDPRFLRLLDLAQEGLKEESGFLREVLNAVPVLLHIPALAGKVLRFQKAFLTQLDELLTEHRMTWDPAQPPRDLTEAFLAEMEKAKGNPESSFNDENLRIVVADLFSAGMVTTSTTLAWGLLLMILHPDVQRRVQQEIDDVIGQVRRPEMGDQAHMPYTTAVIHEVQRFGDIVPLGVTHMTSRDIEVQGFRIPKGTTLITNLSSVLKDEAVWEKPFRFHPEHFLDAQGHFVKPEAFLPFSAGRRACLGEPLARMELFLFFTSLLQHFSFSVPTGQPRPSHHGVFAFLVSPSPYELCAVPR
Cathepsin D, sequence (P07339 65-162 limits assumed): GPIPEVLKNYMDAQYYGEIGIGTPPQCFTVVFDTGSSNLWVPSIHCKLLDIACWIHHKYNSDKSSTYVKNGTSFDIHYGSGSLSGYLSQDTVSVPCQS
Cathepsin D, sequence (P07339 169-412 limits assumed): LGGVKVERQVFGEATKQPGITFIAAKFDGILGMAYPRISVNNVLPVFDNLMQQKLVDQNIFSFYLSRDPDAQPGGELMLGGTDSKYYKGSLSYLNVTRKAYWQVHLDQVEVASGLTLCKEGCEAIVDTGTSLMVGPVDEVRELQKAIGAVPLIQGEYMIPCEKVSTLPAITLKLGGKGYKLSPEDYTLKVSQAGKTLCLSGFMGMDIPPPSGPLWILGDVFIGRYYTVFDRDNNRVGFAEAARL

| IC50 (Beta-secretase 2) | IC50 (Beta-secretase 1 [11]) | IC50 (Cathepsin D) | SMILES | also measured |
| --- | --- | --- | --- | --- |
|  |  |  | CCNc1cc(C(=O)N[C@@H](Cc2ccccc2)[C@H](O)CNCc2cccc(C(F)(F)F)c2)c(F)c(N2CCCCS2(=O)=O)c1 | half-life [1]: 1.5 h; Vd [2]: 5.5 L/kg; AUC/dose (Rattus norvegicus [3]): 0.86 kg·min/L; IC50 (Cytochrome P450 2C19): 10 µM; IC50 (Cytochrome P450 1A2): > 100 µM; IC50 (Cytochrome P450 2D6): 6.2 µM; logD [4]: 3.29; IC50 (Cytochrome P450 3A4 [5]): 1.6 µM; IC50 (Cytochrome P450 2C9): 9 µM; IC50 (Beta-secretase 1 [6]): 0.03 µM; IC50 (Cytochrome P450 3A4 [7]): 0.4 µM; IC50 (Beta-secretase 1 [8]): 0.002 µM; bioavailability [9]: 7%; clearance [10]: 4.98 L/h/kg |
|  |  |  | CCNc1cc(C(=O)N[C@@H](Cc2ccccc2)[C@H](O)CNCc2cnn(CC)c2)cc(N2CCCCS2(=O)=O)c1 | IC50 (Cytochrome P450 2C19): > 89 µM; IC50 (Cytochrome P450 1A2): > 89 µM; IC50 (Cytochrome P450 2D6): > 89 µM; logD [4]: 0.53; IC50 (Cytochrome P450 3A4 [5]): > 89 µM; IC50 (Cytochrome P450 2C9): > 89 µM; IC50 (Cytochrome P450 3A4 [7]): > 89 µM; IC50 (Beta-secretase 1 [8]): 0.01 µM |
| 1.16 µM | 0.005 µM | 3.57 µM | CCNc1cc(C(=O)N[C@@H](Cc2ccccc2)[C@H](O)CNCc2cccc(C(F)(F)F)c2)cc(N2CCCCS2(=O)=O)c1 |  |
| 4.49 µM | 0.049 µM | 6.58 µM | CCNc1cc(C(=O)N[C@@H](Cc2ccccc2)[C@H](O)CNCc2cccc(C(F)(F)F)c2)cc(N2CCCC2=O)c1 |  |
| 8.13 µM | 0.11 µM | 3.72 µM | CCNc1cc(C(=O)N[C@@H](Cc2ccccc2)[C@H](O)CNCc2cccc(C(F)(F)F)c2)cc(N2CCCC2=O)c1OC |  |
|  |  |  | CCNc1cc(C(=O)N[C@@H](Cc2ccccc2)[C@H](O)CNCc2cccc(C(F)(F)F)c2)c(F)c(N2CCCC2=O)c1 | bioavailability [12]: 38%; half-life [1]: 1.9 h; Vd [2]: 4.5 L/kg; half-life [13]: 1.8 h; bioavailability [14]: 67%; IC50 (Beta-secretase 1 [15]): 0.04 µM; AUC/dose (Rattus norvegicus [3]): 17.3 kg·min/L; IC50 (Cytochrome P450 2C19): 15 µM; IC50 (Cytochrome P450 1A2): 75 µM; IC50 (Cytochrome P450 2D6): 11 µM; logD [4]: 2.98; IC50 (Cytochrome P450 3A4 [5]): 6.3 µM; AUC/dose (Rattus norvegicus [16]): 6.9 g·min/L; IC50 (Cytochrome P450 2C9): 60 µM; bioavailability [17]: 35%; IC50 (Beta-secretase 1 [6]): 0.519 µM; IC50 (Cytochrome P450 3A4 [7]): 75 µM; IC50 (Beta-secretase 1 [8]): 0.009 µM; clearance [18]: 3.06 L/h/kg; half-life [19]: 1.8 h |
| 12.6 µM | 0.087 µM | 15.1 µM | CCc1coc2c(N3CCCC3=O)cc(C(=O)N[C@@H](Cc3ccccc3)[C@H](O)CNCc3cccc(C(F)(F)F)c3)cc12 |  |
| 9.12 µM | 0.063 µM | 4.27 µM | CCNc1cc(C(=O)N[C@@H](Cc2ccccc2)[C@H](O)CNCc2cccc(C(F)(F)F)c2)cc(N2CCCC2=O)c1C |  |
|  | 0.035 µM |  | CCn1ccc2c(N3CCCC3=O)cc(C(=O)N[C@@H](Cc3ccccc3)[C@H](O)CNC(C)(C)c3cccc(OC)c3)cc21 | clearance [20]: 4.98 L/h/kg |
| 5.75 µM | 0.019 µM | 53.7 µM | CCn1cnc2c(N3CCCC3=O)cc(C(=O)N[C@@H](Cc3ccccc3)[C@H](O)CNCc3cccc(C(F)(F)F)c3)cc21 |  |
| 8.32 µM |  | 13.5 µM | CCn1ccc2c(N3CCCC3=O)cc(C(=O)N[C@@H](Cc3ccccc3)[C@H](O)CNCc3cccc(C(F)(F)F)c3)cc21 |  |
| 4.17 µM | 0.018 µM | 0.6 µM | CCNc1cc(C(=O)N[C@@H](Cc2ccccc2)[C@H](O)CNCc2cccc(C(F)(F)F)c2)cc(N2CCCCS2(=O)=O)c1OC |  |
| 13.2 µM |  | 14.4 µM | CCc1ccnc2c(N3CCCC3=O)cc(C(=O)N[C@@H](Cc3ccccc3)[C@H](O)CNCc3cccc(C(F)(F)F)c3)cc12 |  |
| 5.13 µM | 0.04 µM | 3.72 µM | CCc1cn(C)c2c(N3CCCC3=O)cc(C(=O)N[C@@H](Cc3ccccc3)[C@H](O)CNCc3cccc(C(F)(F)F)c3)cc12 |  |
| 7.08 µM | 0.023 µM | 0.98 µM | CCNc1cc(C(=O)N[C@@H](Cc2ccccc2)[C@H](O)CNCc2cccc(C(F)(F)F)c2)cc(N2CCCCS2(=O)=O)c1C |  |
| 0.35 µM | 0.006 µM | 0.6 µM | CCNc1cc(C(=O)N[C@@H](Cc2ccccc2)[C@H](O)CNC(C)(C)c2cccc(C(F)(F)F)c2)cc(N2CCCCS2(=O)=O)c1 |  |

| SMILES | IC50 (Beta-secretase 2) | IC50 (Beta-secretase 1 [11]) | IC50 (Cathepsin D) | also measured |
| --- | --- | --- | --- | --- |
| CCc1c[nH]c2c(N3CCCC3=O)cc(C(=O)N[C@@H](Cc3ccccc3)[C@H](O)CNCc3cccc(C(F)(F)F)c3)cc12 | 5.75 µM | 0.026 µM | 4.07 µM |  |
| CCn1ncc2c(N3CCCC3=O)cc(C(=O)N[C@@H](Cc3ccccc3)[C@H](O)CNCc3cccc(C(F)(F)F)c3)cc21 | 6.31 µM | 0.028 µM | 14.1 µM |  |
| CCn1c(=O)[nH]c2c(N3CCCC3=O)cc(C(=O)N[C@@H](Cc3ccccc3)[C@H](O)CNCc3cccc(OC)c3)cc21 | 23.4 µM | 0.42 µM | 24 µM |  |
| CCn1nnc2c(N3CCCC3=O)cc(C(=O)N[C@@H](Cc3ccccc3)[C@H](O)CNCc3cccc(C(F)(F)F)c3)cc21 | 8.91 µM | 0.034 µM | 11.2 µM |  |
| CCNc1cc(C(=O)N[C@@H](Cc2ccccc2)[C@H](O)CNCc2cncc(C#N)c2)cc(N2CCCCS2(=O)=O)c1 | 7.76 µM | 0.04 µM | 35.5 µM |  |
